As usually defined, the inhibition in vivo is how much of the control response was suppressed.

Holding throughout (assay type): functional
Assay [1] is filed under the species Rattus norvegicus. Kind of assay: Analgesic activity in Rattus norvegicus Wistar (rat) assessed as tail flick latency time after 30 min by tail immersion test (reference value: 3.23 +/- 0.005 secs). For orientation: Thermal pain tests record how soon the animal reacts.
For assay [2], the species on record is Rattus norvegicus. Kind of assay: Analgesic activity in Rattus norvegicus Wistar (rat) assessed as tail flick latency time after 90 min by tail immersion test (reference value: 3.25 +/- 0.005 secs).
Assay [3] is filed under the species Rattus norvegicus. Kind of assay: Analgesic activity in Rattus norvegicus Wistar (rat) assessed as tail flick latency time after 60 min by tail immersion test (reference value: 3.34 +/- 0.005 secs).
Assay [4] concerns Rattus norvegicus. In words: Anti-inflammatory activity in Rattus norvegicus Wistar (rat) assessed as inhibition of carrageenan-induced paw edema at 20 mg/kg administered 30 min prior to carrageenan challenge measured after 0.5 hr by plethysmographic analysis relative to untreated control. Background: Carrageenan injected into the paw causes an acute inflammation.
The test system of assay [5] is Rattus norvegicus. In words: Anti-inflammatory activity in Rattus norvegicus Wistar (rat) assessed as inhibition of carrageenan-induced paw edema at 20 mg/kg administered 30 min prior to carrageenan challenge measured after 2 hr by plethysmographic analysis relative to untreated control.
For assay [6], the system named is Rattus norvegicus. Kind of assay: Anti-inflammatory activity in Rattus norvegicus Wistar (rat) assessed as inhibition of carrageenan-induced paw edema at 20 mg/kg administered 30 min prior to carrageenan challenge measured after 1 hr by plethysmographic analysis relative to untreated control.
Assay [7] concerns Rattus norvegicus. Kind of assay: Anti-inflammatory activity in Rattus norvegicus Wistar (rat) assessed as inhibition of carrageenan-induced paw edema at 20 mg/kg administered 30 min prior to carrageenan challenge measured after 3 hr by plethysmographic analysis relative to untreated control.

As to `CCOC(=O)C1=C(C)NC(C)=C(C(=O)OCC)C1c1ccc(OCC(=O)NN2C(=O)c3ccccc3C2=O)cc1`, the Time in assay [1] came out at 5.03 s; in assay [2], 7.21 s; in assay [3], 6.16 s.
Regarding `CCOC(=O)C1=C(C)NC(C)=C(C(=O)OCC)C1c1ccc(OCC(=O)n2nc(C)cc2C)cc1`, the Time in assay [1] worked out at 4.76 s; in assay [2], 6.78 s; in assay [3], 5.93 s. Moreover, the inhibition in vivo at 20 mg/kg in assay [4] worked out at 13.7%.
For `CCOC(=O)C1=C(C)NC(C)=C(C(=O)OCC)C1c1ccc(OCC(=O)NNC(=O)CCC(=O)O)cc1`, the Time in assay [1] stood at 4.96 s; in assay [2], 6.87 s; in assay [3] it was 6.07 s.
Turning to `CCOC(=O)C1=C(C)NC(C)=C(C(=O)OCC)C1c1ccc(OCc2nnc(S)o2)cc1`, the Time in assay [1] is reported as 4.97 s; in assay [2] it was 6.97 s; in assay [3] it was 6.07 s. Besides, the inhibition in vivo at 20 mg/kg in assay [5] was 61.7%; in assay [4], 42.4%.
Consider `CCOC(=O)C1=C(C)NC(C)=C(C(=O)OCC)C1c1ccc(OCC(=O)NNC(=O)c2cccs2)cc1`, for which the Time in assay [2] was found to be 7.02 s; in assay [3], 6.23 s. Besides, the values for the inhibition in vivo at 20 mg/kg in assay [5] and in assay [4] were 62.2% and 44%, respectively.
Consider `CCOC(=O)C1=C(C)NC(C)=C(C(=O)OCC)C1c1ccc(OCC(=O)NNC(=O)c2ccsc2Cl)cc1`, for which the Time was determined as 4.85 s in assay [1], 6.46 s in assay [2] and 5.74 s in assay [3]. For the same compound, the inhibition in vivo at 20 mg/kg in assay [4] was 12.9%.
`CCOC(=O)C1=C(C)NC(C)=C(C(=O)OCC)C1c1ccc(OCC(=O)NNC(=O)c2sccc2Cl)cc1`: the results for the Time in assay [1], in assay [2] and in assay [3] were 4.34 s, 6.45 s and 5.67 s, respectively. The inhibition in vivo at 20 mg/kg in assay [5] worked out at 57.2%.
Take `CCOC(=O)C1=C(C)NC(C)=C(C(=O)OCC)C1c1ccc(OCC(=O)NNC(=O)c2ccccc2)cc1`: the Time in assay [1] was 4.62 s; in assay [2], 6.37 s; in assay [3], 5.87 s. The inhibition in vivo at 20 mg/kg in assay [5] was determined as 44.5%; in assay [4], 9.1%.
For `CCOC(=O)C1=C(C)NC(C)=C(C(=O)OCC)C1c1ccc(OCC(=O)Nc2ccc(C)cc2)cc1`, the values for the inhibition in vivo at 20 mg/kg in assay [5] and in assay [4] were 62.2% and 43.9%, respectively.
For the compound `CCOC(=O)C1=C(C)NC(C)=C(C(=O)OCC)C1c1ccc(OCC(=O)Nc2nc3ccccc3s2)cc1`, the Time was determined as 5.28 s in assay [1] and 6.03 s in assay [3]. In addition, the inhibition in vivo at 20 mg/kg came out at 64.5% in assay [5] and 47.7% in assay [4].
Consider `CCOC(=O)C1=C(C)NC(C)=C(C(=O)OCC)C1c1ccc(OCC(=O)NCc2ccccc2)cc1`, for which the results for the inhibition in vivo at 20 mg/kg in assay [6] and in assay [5] were 16.1% and 8.9%, respectively.
For `CCOC(=O)C1=C(C)NC(C)=C(C(=O)OCC)C1c1ccc(OCC(=O)Nc2c(C)cccc2C)cc1`, the inhibition in vivo at 20 mg/kg was determined as 47.8% in assay [5] and 15.9% in assay [4].
Consider `O=C([O-])Cc1ccccc1Nc1c(Cl)cccc1Cl.[K+]` [DICLOFENAC POTASSIUM], for which the Time turned out to be 6.25 s in assay [1], 7.45 s in assay [2] and 6.95 s in assay [3].
For `O=C(O)Cc1ccccc1Nc1c(Cl)cccc1Cl` [DICLOFENAC SODIUM], the inhibition in vivo at 20 mg/kg amounted to 41% in assay [6], 61.1% in assay [5], 65.3% in assay [7] and 16.7% in assay [4].

(Values after ChEMBL document CHEMBL3046902, “New dihydropyridine derivatives: anti-inflammatory, analgesic and docking studies” (2013).)
